Earlier results in patent publication US10335367B2, “Use of selected anticholinergic zwitterions” (Bodor Laboratories, Inc., priority 2015, dated 2019).
Where two headings read alike, the source gives them in different places.

Assays:
progression of myopia = conditions: 2% ophthalmic gel; school-aged children

SMILES	slowing the progression of myopia (progression of myopia)	mean myopia progression at 2 years (myopia progression; 0.01% atropine) [D/year]	mean myopia progression at 2 years (myopia progression; 0.1% atropine) [D/year]	mean myopia progression at 2 years (myopia progression; 0.5% atropine) [D/year]
CN1CCN(CC(=O)N2c3ccccc3C(=O)Nc3cccnc32)CC1 [Pirenzepine]	found effective			
CN1[C@@H]2CC[C@H]1C[C@@H](OC(=O)C(CO)c1ccccc1)C2 (stereo partly shown) [atropine]		0.24	0.19	0.15
